Where two headings read alike, the source gives them in different places. Some results are limits rather than exact numbers.

The subject of the assay is PBMC (T cell proliferation). The assay can be described thus: T cell proliferation assay, PHA-stimulated human PBMC (BrdU ELISA). The assay is classed as cell-based. The following applies: 48 hours, BrdU. The method, boiled down:
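Healthy-donor human PBMC, Ficoll-isolated, seeded 1×10^5 cells/well in RPMI1640 with 10% dialyzed FCS, stimulated with 2 μg/ml PHA alongside test compound. Proliferation read after 48 hours by BrdU ELISA.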

Where [1] appears, read: human PBMC, 2 μg/ml PHA, read-out: D: IC50 (Tcell proliferation).
[2] abbreviates: PHA-stimulated human PBMC, column D, activity classes 1-4, read-out: IC50 (Tcell proliferation).

Turning to `COC(=O)c1c(-c2ccccc2)noc1-c1cnn(-c2ccccc2F)c1C(F)(F)F` [Example 61, methyl 5-(1-(2-fluorophenyl)-5-(trifluoromethyl)-1H-pyrazol-4-yl)-3-phenylisoxazole-4-carboxylate], the IC50 under setting [1] was in the range of 1000 to 10000 nM.

With `CCOC(=O)c1c(-c2onc(-c3c(F)cccc3Cl)c2C(=O)OC)cnn1-c1cccc(C#N)c1` [Example 13, methyl 3-(2-chloro-6-fluorophenyl)-5-(1-(3-cyanophenyl)-5-(ethoxycarbonyl)-1H-pyrazol-4-yl)isoxazole-4-carboxylate], the IC50 under setting [1] lay in the range of 100 to 1000 nM.

With `CCOC(=O)c1c(-c2onc(-c3c(F)cccc3Cl)c2C(=O)OC)cnn1-c1ccc(F)cc1` [Example 26, methyl 3-(2-chloro-6-fluorophenyl)-5-(5-(ethoxycarbonyl)-1-(4-fluorophenyl)-1H-pyrazol-4-yl)isoxazole-4-carboxylate], the IC50 under setting [1] lay in the range of 1000 to 10000 nM.

`O=C(NC1CCCCC1)c1c(-c2c(F)cccc2Cl)noc1-c1cnn(-c2ccccc2F)c1C(F)(F)F` [Example 18, 3-(2-chloro-6-fluorophenyl)-N-cyclohexyl-5-(1-(2-fluorophenyl)-5-(trifluoromethyl)-1H-pyrazol-4-yl)isoxazole-4-carboxamide]: the IC50 under setting [1] fell in the range of 1000 to 10000 nM.

With `Cc1nnc(-c2c(-c3c(F)cccc3Cl)noc2-c2cnn(-c3ccncc3)c2C(F)(F)F)s1` [IB-22, 3-(2-chloro-6-fluorophenyl)-4-(5-methyl-1,3,4-thiadiazol-2-yl)-5-(1-(pyridin-4-yl)-S-(trifluoromethyl)-1H-pyrazol-4-yl)isoxazole], the IC50 under setting [2] lay in the range of 100 to 1000 nM.

Consider `CCOC(=O)c1c(-c2c(F)cccc2Cl)noc1-c1cnn(-c2ccc(NC(C)=O)cc2)c1C(F)(F)F` [Example B-99, ethyl 5-(1-(4-acetamidophenyl)-5-(trifluoromethyl-1H-pyrazol-4-yl)-3-(2-chloro-6-fluorophenyl)isoxazole-4-carboxylate], for which, under setting [1], the IC50 fell in the range of 1000 to 10000 nM.

With `CCOC(=O)c1c(-c2onc(-c3c(F)cccc3Cl)c2C(=O)OC)cnn1-c1ccc(Cl)cc1Cl` [Example 6, methyl 3-(2-chloro-6-fluorophenyl)-5-(1-(2,4-dichlorophenyl)-5-(ethoxycarbonyl)-1H-pyrazol-4-yl)isoxazole-4-carboxylate], under setting [1], the IC50 lay in the range of 1000 to 10000 nM.

As for `Cc1nnc(-c2c(-c3c(F)cccc3Cl)noc2-c2cnn(-c3cccc(Cl)c3)c2C(F)(F)F)s1` [IB-3, 3-(2-chloro-6-fluorophenyl)-5-(1-(3-chlorophenyl)-5-(trifluoromethyl)-1H-pyrazol-4-yl)-4-(5-methyl-1,3,4-thiadiazol-2-yl)isoxazole], the IC50 under setting [2] is less than 10 nM.

On to `CCOC(=O)c1c(-c2c(Cl)cncc2Cl)noc1-c1cnn(-c2cccc(Cl)c2)c1C(F)(F)F` [Example B-7, ethyl 5-(1-(3-chlorophenyl)-5-(trifluoromethyl)-1H-pyrazol-4-yl)-3-(3,5-dichloropyridin-4-yl)isoxazole-4-carboxylate], for which, under setting [1], the IC50 was 1000 to 10000 nM.

As to `N#Cc1c(-c2c(F)cccc2Cl)noc1-c1cnn(-c2cccc(Cl)c2)c1C(F)(F)F` [Example 49, 3-(2-chloro-6-fluorophenyl)-5-(1-(3-chlorophenyl)-5-(trifluoromethyl)-1H-pyrazol-4-yl)isoxazole-4-carbonitrile], the IC50 under setting [1] lay in the range of 100 to 1000 nM.

In the case of `CO/C(=N\c1c(-c2c(F)cccc2Cl)noc1-c1cnn(-c2cccc(F)c2)c1C(F)(F)F)C(F)(F)F` [Example 136, (Z)-methyl N-(3-(2-chloro-6-fluorophenyl)-5-(1-(3-fluorophenyl)-5-(trifluoromethyl)-1H-pyrazol-4-yl)isoxazol-4-yl)-2,2,2-trifluoroacetimidate], the IC50 under setting [1] fell in the range of 100 to 1000 nM.

For the compound `COC(=O)c1c(-c2c(F)cccc2Cl)noc1-c1cnn(-c2ccccc2)c1C(F)(F)F` [Example 48, methyl 3-(2-chloro-6-fluorophenyl)-5-(1-phenyl-5-(trifluomethyl)1H-pyrazol-4-yl)isoxazole-4-carboxylate], under setting [1], the IC50 fell in the range of 10 to 100 nM.

In the case of `CON(C)C(=O)c1c(-c2ccccc2F)noc1-c1cnn(-c2cccc(F)c2)c1C(F)(F)F` [Example 94, 3-(2-fluorophenyl)-5-(1-(3-fluorophenyl)-5-(trifluoromethyl)-1H-pyrazol-4-yl)-N-methoxy-N-methylisoxazole-4-carboxamide], the IC50 under setting [1] was in the range of 1000 to 10000 nM.

As for `CNC(=S)c1c(-c2c(F)cccc2Cl)noc1-c1cnn(-c2cccc(F)c2)c1C(F)(F)F` [Example 122, 3-(2-chloro-6-fluorophenyl)-5-(1-(3-fluorophenyl)-5-(trifluoromethyl)-1H-pyrazol-4-yl)-N-methylisoxazole-4-carbothioamide], the IC50 under setting [1] is 100 to 1000 nM.

For the compound `CC(C)=NNC(=O)c1c(-c2c(F)cccc2Cl)noc1-c1cnn(-c2cccc(F)c2)c1` [Example B-29, 3-(2-chloro-6-fluorophenyl)-5-(1-(3-fluorophenyl)-1H-pyrazol-4-yl)-N′-(propan-2-ylidene)isoxazole-4-carbohydrazide], the IC50 under setting [1] was in the range of 1000 to 10000 nM.

On to `CCOC(=O)c1c(-c2c(F)cccc2Cl)noc1-c1cnn(Cc2ccccc2F)c1C(F)(F)F` [Example B-80, ethyl 3-(2-chloro-6-fluorophenyl)-5-(1-(2-fluorobenzyl)-5-(trifluoromethyl)-1H-pyrazol-4-yl)isoxazole-4-carboxylate], for which the IC50 under setting [1] lay in the range of 1000 to 10000 nM.

Regarding `CCOC(=O)c1c(-c2c(Cl)cncc2Cl)noc1-c1cnn(-c2ccccc2F)c1C(F)(F)F` [Example B-9, ethyl 3-(3,5-dichloropyridin-4-yl)-5-(1-(2-fluorophenyl)-5-(trifluoromethyl)-1H-pyrazol-4-yl)isoxazole-4-carboxylate], the IC50 under setting [1] was 10 to 100 nM.

With `COC(=O)c1c(-c2c(F)cccc2Cl)noc1-c1cnn(-c2cccc(C(F)(F)F)c2)c1C(F)(F)F` [Example 82, methyl 3-(2-chloro-6-fluorophenyl)-5-(5-(trifluoromethyl)-1-(3-(trifluoromethyl)phenyl)-1H-pyrazol-4-yl)isoxazole-4-carboxylate], the IC50 under setting [1] was 1000 to 10000 nM.

For the compound `CCOC(=O)c1c(-c2c(F)cccc2Cl)noc1-c1cnn(-c2cccc(C(N)=O)c2)c1C(F)(F)F` [Example B-100, ethyl 5-(1-(3-carbamoylphenyl)-5-(trifluoromethyl)-1H-pyrazol-4-yl)-3-(2-chloro-6-fluorophenyl)isoxazole-4-carboxylate], the IC50 under setting [1] lay in the range of 1000 to 10000 nM.

In the case of `CCOC(=O)c1c(-c2c(F)cccc2Cl)noc1-c1cnn(-c2cccc([N+](=O)[O-])c2)c1C(F)(F)F` [Example B-90, ethyl 3-(2-chloro-6-fluorophenyl)-5-(1-(3-nitrophenyl)-5-(trifluoromethyl)-1H-pyrazol-4-yl)isoxazole-4-carboxylate], under setting [1], the IC50 fell in the range of 10 to 100 nM.

On to `COC(=O)c1c(-c2c(F)cccc2Cl)noc1-c1cnn(-c2cc(Cl)cc(Cl)c2)c1C(F)(F)F` [Example 68, methyl 3-(2-chloro-6-fluorophenyl)-5-(1-(3,5-dichlorophenyl)-5-(trifluoromethyl)-1H-pyrazol-4-yl)isoxazole-4-carboxylate], for which the IC50 under setting [1] was in the range of 10 to 100 nM.

On to `COC(=O)c1c(-c2c(F)cccc2Cl)noc1-c1cnn(-c2ccc(C(C)(C)C)cc2)c1C(F)(F)F` [Example 81, methyl 5-(1-(4-tert-butylphenyl)-5-(trifluoromethyl)-1H-pyrazol-4-yl)-3-(2-chloro-6-fluorophenyl)isoxazole-4-carboxylate], for which the IC50 under setting [1] was in the range of 1000 to 10000 nM.

In the case of `Fc1cccc(Cl)c1-c1noc(-c2cnn(-c3cccnc3)c2C(F)(F)F)c1-c1nnco1` [IB-15, 2-(3-(2-chloro-6-fluorophenyl)-5-(1-(pyridin-3-yl)-5-(trifluoromethyl)-1H-pyrazol-4-yl)isoxazol-4-yl)-1,3,4-oxadiazole], the IC50 under setting [2] lay in the range of 100 to 1000 nM.

In the case of `CCOC(=O)c1csc(-c2c(-c3c(F)cccc3Cl)noc2-c2cnn(-c3cccc(F)c3)c2C(F)(F)F)n1` [IB-1, ethyl 2-{3-(2-chloro-6-fluorophenyl)-5-[1-(3-fluorophenyl)-5-(trifluoromethyl)-1H-pyrazol-4-yl]isoxazol-4-yl}-1,3-thiazole-4-carboxylate], the IC50 under setting [2] lay in the range of 100 to 1000 nM.

With `CCOC(=O)c1c(-c2ccncc2F)noc1-c1cnn(-c2ccncc2)c1C(F)(F)F` [Example B-3, ethyl 3-(3-fluoropyridin-4-yl)-5-(1-(pyridin-4-yl)-5-(trifluoromethyl)-1H-pyrazol-4-yl)isoxazole-4-carboxylate], the IC50 under setting [1] is 100 to 1000 nM.

On to `CCOC(=O)c1c(-c2c(F)cccc2Cl)noc1-c1cnn(-c2ccccc2F)c1C(F)(F)F` [Example 42, Ethyl 3-(2-chloro-6-fluorophenyl)-5-[1-(2-fluorophenyl)-5-(trifluoromethyl)-1H-pyrazol-4-yl]isoxazole-4-carboxylate], for which, under setting [1], the IC50 fell in the range of 10 to 100 nM.

Take `CNC(=O)c1c(-c2ccccc2Cl)noc1-c1cnn(-c2cccc(F)c2)c1C(F)(F)F` [Example 96, 3-(2-chlorophenyl)-5-(1-(3-fluorophenyl)-5-(trifluoro-methyl)-1H-pyrazol-4-yl)-N-methylisoxazole-4-carboxamide]: the IC50 under setting [1] was 100 to 1000 nM.

Consider `O=C(c1c(-c2c(F)cccc2Cl)noc1-c1cnn(-c2ccccc2F)c1C(F)(F)F)N1CCCCC1` [Example 21, (3-(2-chloro-6-fluorophenyl)-5-(1-(2-fluorophenyl)-5-(trifluoromethyl)-1H-pyrazol-4-yl)isoxazol-4-yl)(piperidin-1-yl)methanone], for which the IC50 under setting [1] lay in the range of 10 to 100 nM.

Take `COC(=O)c1c(-c2ccc(Cl)cc2Cl)noc1-c1cnn(-c2cccc(F)c2)c1C(F)(F)F` [Example 111, methyl 3-(2,4-dichlorophenyl)-5-(1-(3-fluorophenyl)-5-(trifluoromethyl)-1H-pyrazol-4-y)isoxazole-4-carboxylate]: the IC50 under setting [1] is 100 to 1000 nM.

Consider `Fc1ccccc1-n1ncc(-c2onc(-c3c(F)cccc3Cl)c2-c2cnco2)c1C(F)(F)F` [IB-28, 3-(2-chloro-6-fluorophenyl)-5-(1-(2-fluorophenyl)-5-(trifluoromethyl)-1H-pyrazol-4-yl)-4-(oxazol-5-yl)isoxazole], for which the IC50 under setting [2] lay within 100 to 1000 nM.

(Values after patent US8592456B2 (4SC Discovery GmbH, priority 2011, dated 2013).)
